According to patent publication US8846951B2 (AbbVie Inc., priority 2009, dated 2014):
pEC50, pKi: −log10 of the molar value. Like-named read-outs stand apart in the source and are kept apart here.

What was measured:
[1] = target: T1, human serotonin 5-HT2c receptor (Homo sapiens, UniProt P28335); experiment: Human 5-HT2C receptor radioligand binding assay (agonist site, [125I]DOI); settings: 5-HT2c agonist site; transfected CHO cell membranes; 0.2 nM [125I](±)DOI
T1 construct: expressed in transfected cells; host or cells: CHO cells (membrane homogenates)
T1 sequence (P28335 33-458): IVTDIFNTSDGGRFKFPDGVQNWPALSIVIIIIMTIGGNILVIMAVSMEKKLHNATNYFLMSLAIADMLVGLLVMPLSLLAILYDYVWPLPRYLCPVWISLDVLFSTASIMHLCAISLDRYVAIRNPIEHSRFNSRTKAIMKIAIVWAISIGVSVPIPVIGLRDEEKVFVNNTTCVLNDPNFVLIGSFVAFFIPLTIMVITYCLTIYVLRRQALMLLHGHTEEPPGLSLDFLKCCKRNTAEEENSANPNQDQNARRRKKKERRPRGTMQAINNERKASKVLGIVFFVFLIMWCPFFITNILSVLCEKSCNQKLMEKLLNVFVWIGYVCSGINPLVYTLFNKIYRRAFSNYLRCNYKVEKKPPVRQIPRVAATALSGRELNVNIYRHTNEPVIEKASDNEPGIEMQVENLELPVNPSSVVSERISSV
Method: (i) Human 5-HT2C Receptor Radioligand Binding Assay
Affinity of compounds for the agonist site of the […], receptor in transfected CHO cells was determined in a radioligand binding assay essentially as described by Bryant, H. U., et al., Life Sciences (1996) 59(15), 1259-1268.

[2] = target: T2, 5HT2C receptors (Homo sapiens, UniProt P28335); experiment: Human 5-HT2C functional assay in 1321N1 cells (intracellular calcium, FLIPR); assay type: cell-based; parameters: expressed in transfected cells; host or cells: 1321N1 cells; settings: 5-HT2c agonist activity, maximum calcium response
T2 sequence (P28335 33-458): T1 sequence (P28335 33-458)
Method: (ii) Human 5-HT2C Functional Assay in 1321N1 Cells
Functional activity was determined by testing the effect of the compounds on intracellular calcium levels in 1321N1 cells stably transfected with the human 5-HT2C receptor. Cells were seeded into 96-well plates at 50,000 cells/well and grown overnight in tissue culture medium (DMEM with Glutamax I (Invitrogen), containing 10% dFCS, 50 μg/mL Gentamicin, 400 μg/mL Geneticin) at 37° C. and 7% CO2. Growth medium was replaced by medium without dFCS for overnight incubation. Cells were loaded with a fluorescent calcium-sensitive dye in the presence of 1% probenicid according to the manufacturer's protocol (Fluo4 AM, Molecular Devices). Serial compound dilutions (final concentrations 10^−10 to 10^−5 M) were added to the cells either alone or in the presence of serotonin (10^−9 M) and the maximum calcium response was determined using a FLIPR instrument (Molecular Devices). Concentration-response curves were fitted using a four-parameter logistic equation (GraphPad Prism). The concentration at which the compound exerts half its maximal effect is named the ‘effective concentration 50’ or ‘EC50’ and is listed in Table 2.

[3] = target: T2, 5HT2C receptors; experiment: Human 5-HT2C functional high throughput screening assay in CHO-K1 cells (calcium flux); assay type: cell-based; parameters: expressed in transfected cells; host or cells: CHO-K1 cells; settings: for Emax: 5-HT2C, maximum functional response as percentage relative to the effect of serotonin; for pEC50: CHO-K1 cells, calcium flux
Method in brief: (§1)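 Frozen CHO-K1 cells overexpressing the receptor were plated, serum-starved overnight, then loaded with Ca4 dye plus 2.5 mM probenecid for 60 min at room temperature. FLIPR fluorescence (ex 480/em 530 nm, 25 °C) after compound addition was normalized to serotonin; EC50 and Emax came from 4-parameter logistic fits.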

[4] = target: T3, 5HT2B receptors (Homo sapiens, UniProt P41595); experiment: Human 5-HT2B functional high throughput screening assay in CHO-K1 cells (calcium flux); assay type: cell-based; settings: for pEC50: CHO-K1 cells, calcium flux
T3 construct: expressed in transfected cells; host or cells: CHO-K1 cells
T3 sequence (P41595 whole entry): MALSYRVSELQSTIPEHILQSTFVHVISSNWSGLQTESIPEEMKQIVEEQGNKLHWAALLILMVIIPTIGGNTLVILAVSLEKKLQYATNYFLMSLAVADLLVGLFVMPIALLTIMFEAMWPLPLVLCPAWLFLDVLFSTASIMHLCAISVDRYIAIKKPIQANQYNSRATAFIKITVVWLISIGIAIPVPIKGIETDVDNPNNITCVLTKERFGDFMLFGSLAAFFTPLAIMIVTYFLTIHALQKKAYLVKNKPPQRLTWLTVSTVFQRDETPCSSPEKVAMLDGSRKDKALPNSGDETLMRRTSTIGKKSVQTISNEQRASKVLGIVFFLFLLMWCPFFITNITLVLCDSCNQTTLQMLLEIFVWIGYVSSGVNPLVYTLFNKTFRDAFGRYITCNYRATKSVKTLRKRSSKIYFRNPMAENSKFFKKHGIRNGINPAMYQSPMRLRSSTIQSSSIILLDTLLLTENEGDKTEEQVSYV
Method in brief: as §1

[5] = 5-HT2C agonist activity, read-out: EC50
[6] = 5-HT2B agonist activity, read-out: EC50
[7] = 5-HT2B, maximum functional response as percentage relative to the effect of serotonin

| Molecule | pKi [1] | pEC50 [2] | also measured |
| --- | --- | --- | --- |
| O=C1NC[C@@H]2CN(Cc3cc(Cl)ccc3F)C[C@H]2c2ccccc21 (relative stereo) [Example 70, Trans-2-(5-chloro-2-fluorobenzyl)-1,2,3,3a,4,5-hexahydrobenzo[e]pyrrolo[3,4-c]azepin-6(10bH)-one] | 7.44 | 8.75 | – |
| O=C1NC[C@@H]2CN(Cc3cc(Cl)cc(Cl)c3)C[C@H]2c2ccccc21 (relative stereo) [Example 30, Trans-2-(3,5-dichlorobenzyl)-1,2,3,3a,4,5-hexahydrobenzo[c]pyrrolo[3,4-e]azepin-6(10bH)-one] | 8.47 | 8.68 | – |
| O=C1NC[C@@H]2CNC[C@H]2c2c(Cl)cccc21 (relative stereo) [Example 49] | 6.77 | 7.32 | – |
| O=C1NC[C@@H]2CN(Cc3ccccc3)C[C@H]2c2cc(Cl)c(Cl)cc21 (relative stereo) [Example 56, Trans-2-benzyl-8,9-dichloro-1,2,3,3a,4,5-hexahydrobenzo[c]pyrrolo[3,4-e]azepin-6(10bH)-one] | 7.15 | 7.82 | – |
| O=C1NC[C@@H]2CNC[C@H]2c2cccc(F)c21 (single isomer, unassigned) [Example 60, Trans-7-fluoro-1,2,3,3a,4,5-hexahydrobenzo[c]pyrrolo[3,4-e]azepin-6(10bH)-one] | 7.36 | 8.12 | Emax ([3]; CHO-K1): 120%; pEC50 ([3]; EC50, 5-HT2C agonist activity): 8.15; Emax ([4]; CHO-K1): 80%; pEC50 ([4]; EC50, 5-HT2B agonist activity): 6.05 |
| O=C1NC[C@@H]2CN(Cc3ccccc3)C[C@@H]2c2cccc(F)c21 (relative stereo) [Example 59, Cis-2-benzyl-7-fluoro-1,2,3,3a,4,5-hexahydrobenzo[c]pyrrolo[3,4-e]azepin-6(10bH)-one] | 6.68 | 6.94 | pEC50 [3, 5]: 7.00; Emax ([3]; CHO-K1, read-out: Emax): 120%; pEC50 [4, 6]: < 5.00; Emax [4, 7]: inactive |
| O=C1NC[C@@H]2CN(Cc3ccccc3)C[C@H]2c2c(F)cccc21 (relative stereo) [Example 65, Trans-2-benzyl-10-fluoro-1,2,3,3a,4,5-hexahydrobenzo[c]pyrrolo[3,4-e]azepin-6(10bH)-one] | 7.28 | 7.69 | pEC50 [3, 5]: 7.70; Emax ([3]; CHO-K1, read-out: Emax): 120%; pEC50 [4, 6]: < 5.00; Emax [4, 7]: inactive |
| CN1C[C@H]2CNC(=O)c3ccccc3[C@@H]2C1 (relative stereo) [Example 69, Trans-2-methyl-1,2,3,3a,4,5-hexahydrobenzo[c]pyrrolo[3,4-e]azepin-6(10bH)-one] | 7.32 | 8.06 | Emax ([3]; CHO-K1): 120%; pEC50 ([3]; EC50, 5-HT2C agonist activity): 8.05; Emax ([4]; CHO-K1): 70%; pEC50 ([4]; EC50, 5-HT2B agonist activity): 6.30 |
| O=C1NC[C@@H]2CN(Cc3ccccc3)C[C@H]2c2c(Cl)cccc21 (relative stereo) [Example 48, Trans-2-benzyl-10-chloro-1,2,3,3a,4,5-hexahydrobenzo[e]pyrrolo[3,4-c]azepin-6(10bH)-one] | 7.66 | 7.85 | – |
| Cc1cccc(CN2C[C@H]3CNC(=O)c4ccccc4[C@@H]3C2)c1C (relative stereo) [Example 27, Trans-2-(2,3-dimethylbenzyl)-1,2,3,3a,4,5-hexahydrobenzo[c]pyrrolo[3,4-e]azepin-6(10bH)-one] | 6.68 | 6.58 | – |
| COC(=O)c1cccc(CN2C[C@H]3CNC(=O)c4ccccc4[C@@H]3C2)c1 (relative stereo) [Example 68, Trans-methyl-3-((6-oxo-1,3a,4,5,6,10b-hexahydrobenzo[e]pyrrolo[3,4-c]azepin-2(3H)-yl)methyl)benzoate] | 8.00 | 8.40 | pEC50 [3, 5]: 8.15; Emax ([3]; CHO-K1, read-out: Emax): 120%; pEC50 [4, 6]: < 5.00; Emax [4, 7]: inactive |
| COc1cc(CN2C[C@H]3CNC(=O)c4ccccc4[C@@H]3C2)cc(OC)c1 (relative stereo) [Example 38, Trans-2-(3,5-dimethoxybenzyl)-1,2,3,3a,4,5-hexahydrobenzo[c]pyrrolo[3,4-e]azepin-6(10bH)-one] | 8.07 | 8.20 | – |
| (3aR,10bS)-1,2,3,3a,4,5-Hexahydrobenzo[e]pyrrolo[3,4-c]azepin-6(10bH)-one [Example 47] | 8.21 | 9.24 | pEC50 [3, 5]: 9.52; Emax [3]: >120%; pEC50 [4, 6]: 7.70; Emax [4, 7]: 100% |
| O=C1NC[C@@H]2CN(Cc3ccccc3)C[C@H]2c2ccc(Cl)cc21 (relative stereo) [Example 45, Trans-2-benzyl-8-chloro-1,2,3,3a,4,5-hexahydrobenzo[c]pyrrolo[3,4-e]azepin-6(10bH)-one] | 8.16 | 8.23 | – |
| O=C1NC[C@@H]2CN(Cc3ccccc3)C[C@H]2c2cc(Cl)ccc21 (relative stereo) [Example 51, Trans-2-benzyl-9-chloro-1,2,3,3a,4,5-hexahydrobenzo[e]pyrrolo[3,4-c]azepin-6(10bH)-one] | 6.96 | 7.08 | – |
| O=C1NC[C@@H]2CNC[C@H]2c2ccc(F)cc21 (relative stereo) [Example 57, Trans-8-fluoro-1,2,3,3a,4,5-hexahydrobenzo[c]pyrrolo[3,4-e]azepin-6(10bH)-one] | 7.59 | 8.12 | Emax ([3]; CHO-K1): 120%; pEC50 ([3]; EC50, 5-HT2C agonist activity): 8.22; Emax ([4]; CHO-K1): 100%; pEC50 ([4]; EC50, 5-HT2B agonist activity): 6.15 |
| O=C1NC[C@@H]2CNC[C@H]2c2ccc(Cl)cc21 (relative stereo) [Example 46, Trans-8-chloro-1,2,3,3a,4,5-hexahydrobenzo[e]pyrrolo[3,4-c]azepin-6(10bH)-one] | 7.96 | 8.94 | – |
| O=C1NC[C@H]2CN(Cc3ccccc3)C[C@@H]2c2ccc(F)cc21 [Example 61, (3aS,10bS)-2-Benzyl-8-fluoro-1,2,3,3a,4,5-hexahydrobenzo[e]pyrrolo[3,4-e]azepin-6(10bH)-one] | 8.19 | 8.49 | Emax ([3]; CHO-K1): > 120%; pEC50 ([3]; EC50, 5-HT2C agonist activity): 8.24; Emax ([4]; CHO-K1): 10%; pEC50 ([4]; EC50, 5-HT2B agonist activity): 6.70 |
| COc1cccc(CN2C[C@H]3CNC(=O)c4ccccc4[C@@H]3C2)c1 (relative stereo) [Example 28, Trans-2-(3-methoxybenzyl)-1,2,3,3a,4,5-hexahydrobenzo[c]pyrrolo[3,4-e]azepin-6(10bH)-one] | 7.85 | 8.40 | pEC50 [3, 5]: 9.00; Emax ([3]; CHO-K1, read-out: Emax): > 120%; pEC50 [4, 6]: 7.15; Emax ([4]; CHO-K1, 5-HT2B, maximum functional response as percentage relative to the effect of serotonin, read-out: Emax): 55% |
| COc1ccccc1CN1C[C@H]2CNC(=O)c3ccccc3[C@@H]2C1 (relative stereo) [Example 29, Trans-2-(2-methoxybenzyl)-1,2,3,3a,4,5-hexahydrobenzo[c]pyrrolo[3,4-e]azepin-6(10bH)-one] | 7.15 | 7.57 | – |
| O=C1NC[C@@H]2CN(Cc3ccccc3)C[C@@H]2c2c(F)cccc21 (relative stereo) [Example 66, Cis-2-benzyl-10-fluoro-1,2,3,3a,4,5-hexahydrobenzo[c]pyrrolo[3,4-e]azepin-6(10bH)-one] | 6.54 | 6.75 | – |
| O=C1NC[C@@H]2CNC[C@H]2c2cc(Cl)ccc21 (relative stereo) [Example 52, Trans-9-chloro-1,2,3,3a,4,5-hexahydrobenzo[e]pyrrolo[3,4-c]azepin-6(10bH)-one] | 6.07 | 6.80 | – |
